Test system: male patients with ED
Assay: RigiScan assessment during visual stimulus challenge in male patients with ED
Assay type: in vivo, human
Parameters: individual RAU value at the base / individual TAU value at the tip / individual RAU value at the tip / individual TAU value at the base: unit not given here
From the text: The RigiScan Plus Monitor consists of two loops, one to be placed around the base of the penis and the other towards the tip. The ambulatory monitor uses tip and base penile loops that adjust by tightening slightly at discrete time intervals to measure and record penile rigidity and tumescence. Each loop contains a cable that moves freely inside a conduit. Each loop takes a measurement every 15 seconds. The loop gently tightens with a linear force of 4 ounces (114 g) and then immediately releases and the tissue rebounds to its unloaded state. The RigiScan Plus Monitor then takes a tumescence measurement. After the tumescence measurement is taken, it is compared to the previous samples. When a 6 mm increase in tumescence is detected, representing possible erectile activity, the RigiScan Plus Monitor takes a second measurement every 30 seconds. After tumescence is measured, the loops tighten a second time around the circumference of the penis with a linear force of 10 ounces (283.5 g). The RigiScan Plus Monitor takes a measurement when this force is applied to record a cross sectional response to radial compression. This is how rigidity is measured^1. Data were recorded on a monitor strapped to the thigh of the subjects/participants and downloaded onto a computer after the recording session. Subjects/participants were instructed on how to self-apply the RigiScan Plus Monitor by the Investigator and were advised to wear loose fitting clothing during the residential stay at the unit.
The study was an exploratory Phase II, randomised, placebo-controlled, double-blind, crossover study, investigating the effects of a single oral dose of IP2015 on erectile function in males with ED. A dose level of 10 mg was selected. Patients were enrolled into two cohorts. Both cohorts participated in two periods (Period 1 and Period 2) and received a single dose of IP2015 and a single dose of placebo.
Patients were assessed for efficacy using the RigiScan Plus Monitor during the stimulus challenge at predose and 1, 4 and 8-hour postdose on Day 1 of each treatment period.
The design of the stimulus challenge is outlined in FIG. 3. Predose and 1, 4 and 8-hour postdose, the patients were asked to watch a 20-minute digital clip in a private room. The digital clip consisted of a 10-minute neutral digital clip followed by a 10-minute digital clip consisting of heterosexual pornography. The study staff started the digital clip and then left the room, during which there was a 1-minute delay before the neutral digital clip commenced. The neutral and pornographic digital clip were different at each assessment. RigiScan assessments were recorded through the assessment period. The RigiScan Plus Monitor was applied for approximately 20 minutes on each occasion. The patient was semi-recumbent during the assessment.
The RigiScan measurement parameters were treated as efficacy outcomes and calculated in a similar fashion as in Example 2.
Effects of IP2015 on PD parameters were analysed with a generalised mixed regression model using a PD parameter as responsible variable, treatment (active and placebo), timepoint, period (1 and 2), sequence (active-placebo, placebo-active), interaction between treatment and timepoint as mixed effects, baseline measurements as a covariate, and patient as a random effect. This model was applied to each PD parameter. The treatment difference between active and placebo at different timepoints together with 95% CIs was derived from the generalized mixed regression model. For a continuous outcome, treatment difference was measured as the difference in LS mean; for a binary outcome, treatment difference was measured as the odds ratio. In case of model non-convergence due to small sample size at some timepoints, those timepoints could be pooled with neighbouring timepoints.

[1] = 10 mg, 4 hours postdose, N = 12
[2] = 10 mg, 4 hours postdose, statistically significant

COc1cc2ccc(OC3CC4CCC(C3)N4)cc2oc1=O (stereo not drawn) [IP2015, 7-[(8-azabicyclo[3.2.1]octan-3-yl)oxy]-3-methoxy-chromen-2-one]
baseline circumference at the tip, LS mean difference compared to placebo (10 mg, 1 hour postdose, 95% CI: 0.02, 1.05, significantly higher): 0.53 | Average event rigidity, Base, LS Mean Difference of IP2015 − Placebo (10 mg, 4 hours postdose): 6.92% | Average event rigidity, Tip, LS Mean Difference of IP2015 − Placebo (10 mg, 4 hours postdose): 10.21% | Average events of tumescence, Base, LS Mean Difference of IP2015 − Placebo (10 mg, 4 hours postdose): 1.05 | Average events of tumescence, Tip, LS Mean Difference of IP2015 − Placebo (10 mg, 4 hours postdose): 1.05 | Baseline circumference, Base, LS Mean Difference of IP2015 − Placebo (10 mg, 4 hours postdose): −0.28 | Baseline circumference, Tip, LS Mean Difference of IP2015 − Placebo (10 mg, 4 hours postdose): −0.21 | Event duration, LS Mean Difference of IP2015 − Placebo (10 mg, 4 hours postdose): 8.20 % of session | RAU, Base, LS Mean Difference of IP2015 − Placebo (10 mg, 4 hours postdose): 2.33 | TAU, Tip, LS Mean Difference of IP2015 − Placebo (10 mg, 4 hours postdose): 1.42 | Time rigid 80-100%, Base, LS Mean Difference of IP2015 − Placebo (10 mg, 4 hours postdose): 0.03 | Total event duration, LS Mean Difference of IP2015 − Placebo (10 mg, 4 hours postdose): 0.05 min | Total events, LS Mean Difference of IP2015 − Placebo (10 mg, 4 hours postdose): 0.03 | time rigid 80%-100% at the tip, RAU at the tip and TAU at the base versus placebo (10 mg, 4 hours postdose): statistically significant compared to placebo | patients appearing to respond to treatment (individual RAU and TAU values) (10 mg, 4 hours postdose, 12 patients): 3 | Average event rigidity, Base, Mean (SD) [1]: 20.83 (30.61) % | Average event rigidity, Tip, Mean (SD) [1]: 19.58 (29.42) % | Average events of tumescence, Base, Mean (SD) [1]: 3.49 (4.35) | Average events of tumescence, Tip, Mean (SD) [1]: 3.33 (4.16) | Baseline circumference, Base, Mean (SD) [1]: 7.21 (1.54) | Baseline circumference, Tip, Mean (SD) [1]: 6.82 (1.16) | Event duration, Mean (SD) [1]: 17.75 (27.72) % of session | RAU, Base, Mean (SD) [1]: 3.50 (6.82) | RAU, Tip, Mean (SD) [1]: 3.25 (6.25) | TAU, Base, Mean (SD) [1]: 2.83 (4.97) | TAU, Tip, Mean (SD) [1]: 2.17 (3.59) | Time rigid 80-100%, Base, Mean (SD) [1]: 0.04 (0.11) | Time rigid 80-100%, Tip, Mean (SD) [1]: 0.04 (0.10) | Total event duration, Mean (SD) [1]: 0.09 (0.14) mins | Total events, Mean (SD) [1]: 0.42 (0.51) | RAU, Tip, LS Mean Difference of IP2015 − Placebo [2]: 2.54 | TAU, Base, LS Mean Difference of IP2015 − Placebo [2]: 1.95 | Time rigid 80-100%, Tip, LS Mean Difference of IP2015 − Placebo [2]: 0.03 | individual RAU value at the base (Patient 176, 4 hours postdose): 21 | individual RAU value at the tip (Patient 176, 4 hours postdose): 19 | individual TAU value at the base (Patient 176, 4 hours postdose): 14 | individual TAU value at the tip (Patient 176, 4 hours postdose): 8 | individual RAU value at the base (Patient 177, 4 hours postdose): 14 | individual RAU value at the tip (Patient 177, 4 hours postdose): 13 | individual TAU value at the base (Patient 177, 4 hours postdose): 11 | individual TAU value at the tip (Patient 177, 4 hours postdose): 9 | individual RAU value at the base (Patient 191, 4 hours postdose): 4 | individual RAU value at the tip (Patient 191, 4 hours postdose): 5 | individual TAU value at the base (Patient 191, 4 hours postdose): 7 | individual TAU value at the tip (Patient 191, 4 hours postdose): 7

From patent US20260216166A1, “COMPOUND FOR TREATMENT OF ERECTILE DYSFUNCTION” (Initiator Pharma A/S, priority 2023, published 2026)
